# Columns and labels:
# E3 CRL4^CRBN = E3 CRL4^CRBN (Homo sapiens (Human), UniProt Q13619); assay: Lenalidomide-dependent ubiquitination of CK1α by CRL4^CRBN; type: biochemical
# Protocol: To prepare Flag-CK1α as a substrate for ubiquitination experiments described in FIGS. 2A-E, the expression vector (purchased from Addgene) was introduced to HEK-293T cells by transfection using Lipofectamine RNAIMAX (ThermoFisher) according to manufacturer's protocols. Cell extracts were prepared and the concentration of Flag-CK1α was determined using immunoblot analysis with purified GST-CK1α (Sigma) as a standard. Typically, 50-100 μl of extracts was used to attach to ˜15 μl of M2 beads (Sigma) at 4° C. for 2 hours. Unbound materials were removed by washing (first three times with a washing buffer containing 50 mM Tris-HCl, pH8.0, 1% Triton X-100, 0.5M NaCl, and then twice with buffer A plus 50 mM NaCl) and the resulting beads were used in the ubiquitination assay (15 μl). The concentration of Flag-CK1α was determined to be ˜100 nM.
# Immobilized, Flag-CK1α-containing beads were initially incubated with a reaction mixture (10 μl) containing 50 mM Tris-HCl (pH7.4), 0.5 mM DTT, 0.1 mg/ml of BSA, 5 mM MgCl2, 100 nM CRL4^CRBN, 1 μM Lenalidomide (Selleckchem), 1 μM Fluorescein-Ub, 100 nM E1, and 1 μM UbcH5c. ATP (20 mM) was added last to initiate the reaction. The reaction was incubated on a thermomixer (1,300 rpm; Eppendorf) at 37° C. for 5 min. The resulting beads were then added with a second reaction mixture (5 μl) containing 50 mM Tris-HCl (pH7.4), 0.5 mM DTT, 0.1 mg/ml of BSA, 5 mM MgCl2, 4 μM I-Ub-Q31C/K48R, and 1 μM Cdc34b, in the presence or absence of E3 inhibitors as specified. The reaction was incubated on a thermomixer at 37° C. for times as indicated. The concentrations of enzymes, Ubs, and compounds stated above were adjusted based on a final volume of 15 μl. The beads were then washed using conditions as described above. Materials eluted from the beads were separated by 4-20% SDS-PAGE followed by detection with fluorescence scanning (Typhoon 9500) or immunoblot using anti-CK1α antibody (Abcam). […]
# ROC1-CUL1 = ROC1-CUL1 (Homo sapiens (Human), UniProt Q13616); assay: Gel-based di-Ub synthesis; type: biochemical
# Protocol: For the experiment shown in FIG. 7 and FIGS. 8A-B, the di-Ub synthesis reaction was carried out by preassembling the donor Ub mix. The donor Ub mixture (5 μl) contained 50 mM Tris HCl (pH 7.4), 5 mM MgCl2, 2 mM ATP, 0.5 mM DTT, 0.1 mg/mL BSA, 1 μM Ub-NC-I555, 0.1 μM E1, and 2 μM Cdc34b. The reaction was incubated for 5 min at 37° C. Compounds, in the amounts indicated, were added followed by the addition of ROC1-CUL1 (or related E3 subcomplex) in amounts as indicated and 10 μM PK-Ub (1-74) (as a receptor). The final volume was adjusted to 10 μl. The reaction was incubated for 10 min at 37° C.
# For the experiments shown in FIG. 8C and FIG. 9, the reaction was assembled in a 10-μl mixture containing 50 mM Tris HCl (pH 7.4), 5 mM MgCl2, 0.5 mM DTT, 0.1 mg/mL BSA, 0.05 μM Ub-NC-I555, 2,5 μM PK-Ub (1-74), 0.1 μM E1, 1 μM Cdc34b, and 80 nM ROC1-CUL1 with or without compound. The reaction was initiated by the addition of 2 mM ATP. The products were separated by 4-20% SDS/PAGE and were visualized and quantified on a Typhoon FLA 9500 laser scanner (GE).
# cancer cells = assay: Apoptosis, Annexin V flow cytometry; type: cell-based
# Procedure, shortened: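 5×10^4 cells were seeded 24 h before treatment, then cultured with compound for 48 h. Pelleted cells were washed in Annexin V binding buffer (HEPES pH 7.4, with CaCl2) and stained in the dark with Annexin V-FITC (2 μg/ml) for 5 min. Apoptosis was read by flow cytometry.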
# Plasma stability = type: in vitro ADME; settings: Human
# Protocol: (§1) ADME studies on compounds #33-11 and KH-4-43 for “absorption, distribution, metabolism, and excretion” were carried out at CRO, BioDuro. Kinetic solubility, plasma and microsome stability in rat, mouse and human, as well as Caco-2 Permeability were examined.
# CACO-2 = CACO-2 permeability; type: in vitro ADME; settings: for PGP substrate: PGP-transporter (MDR1)
# Protocol: as §1
# Mouse i.p. PK = type: in vivo
# [1] = End-of-study PK in MV4-11 xenograft mice; type: in vivo; settings: mouse
# Protocol: Tumor tissues were weighed at the end of study. At the endpoint, 100 μl blood and tumors from Group 3 (G3) and Group 4 (G4) were collected as shown in the Table 3, for further pharmacokinetics or biomarker analysis. Plasma were isolated from all blood samples.
# MV4-11 tumors = assay: AML MV4-11 subcutaneous xenograft; settings: for tumor inhibition value: IP
# CRL1/SCF = CRL1/SCF (Homo sapiens, UniProt Q13616)
# Chain of E3 CRL4^CRBN (Q13619 whole entry): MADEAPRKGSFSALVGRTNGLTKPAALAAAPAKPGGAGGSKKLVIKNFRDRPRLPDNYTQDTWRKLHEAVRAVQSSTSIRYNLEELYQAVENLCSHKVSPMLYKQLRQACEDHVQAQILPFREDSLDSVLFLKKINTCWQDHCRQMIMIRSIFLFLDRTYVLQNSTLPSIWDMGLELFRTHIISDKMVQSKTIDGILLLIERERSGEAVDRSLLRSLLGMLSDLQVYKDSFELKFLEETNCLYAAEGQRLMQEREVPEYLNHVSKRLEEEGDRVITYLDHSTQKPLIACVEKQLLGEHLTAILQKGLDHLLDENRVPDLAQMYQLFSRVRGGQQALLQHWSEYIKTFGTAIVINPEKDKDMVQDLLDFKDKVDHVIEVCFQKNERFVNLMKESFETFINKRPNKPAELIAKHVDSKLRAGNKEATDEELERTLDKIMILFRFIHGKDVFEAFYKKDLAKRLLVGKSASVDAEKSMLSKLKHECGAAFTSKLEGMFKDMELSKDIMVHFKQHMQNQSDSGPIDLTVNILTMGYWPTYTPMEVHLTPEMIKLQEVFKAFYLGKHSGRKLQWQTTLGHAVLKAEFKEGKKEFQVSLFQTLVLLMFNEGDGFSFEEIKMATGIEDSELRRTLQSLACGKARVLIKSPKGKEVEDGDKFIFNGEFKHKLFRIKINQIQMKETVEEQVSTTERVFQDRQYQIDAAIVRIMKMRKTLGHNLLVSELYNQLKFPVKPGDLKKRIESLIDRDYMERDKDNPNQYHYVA
# Chain of E3 CRL4^CRBN (P62877 whole entry partner): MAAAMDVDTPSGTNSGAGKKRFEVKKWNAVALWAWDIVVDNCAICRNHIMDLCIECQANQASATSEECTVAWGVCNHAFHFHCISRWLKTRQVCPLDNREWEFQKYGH
# Chain of E3 CRL4^CRBN (Q16531 whole entry partner): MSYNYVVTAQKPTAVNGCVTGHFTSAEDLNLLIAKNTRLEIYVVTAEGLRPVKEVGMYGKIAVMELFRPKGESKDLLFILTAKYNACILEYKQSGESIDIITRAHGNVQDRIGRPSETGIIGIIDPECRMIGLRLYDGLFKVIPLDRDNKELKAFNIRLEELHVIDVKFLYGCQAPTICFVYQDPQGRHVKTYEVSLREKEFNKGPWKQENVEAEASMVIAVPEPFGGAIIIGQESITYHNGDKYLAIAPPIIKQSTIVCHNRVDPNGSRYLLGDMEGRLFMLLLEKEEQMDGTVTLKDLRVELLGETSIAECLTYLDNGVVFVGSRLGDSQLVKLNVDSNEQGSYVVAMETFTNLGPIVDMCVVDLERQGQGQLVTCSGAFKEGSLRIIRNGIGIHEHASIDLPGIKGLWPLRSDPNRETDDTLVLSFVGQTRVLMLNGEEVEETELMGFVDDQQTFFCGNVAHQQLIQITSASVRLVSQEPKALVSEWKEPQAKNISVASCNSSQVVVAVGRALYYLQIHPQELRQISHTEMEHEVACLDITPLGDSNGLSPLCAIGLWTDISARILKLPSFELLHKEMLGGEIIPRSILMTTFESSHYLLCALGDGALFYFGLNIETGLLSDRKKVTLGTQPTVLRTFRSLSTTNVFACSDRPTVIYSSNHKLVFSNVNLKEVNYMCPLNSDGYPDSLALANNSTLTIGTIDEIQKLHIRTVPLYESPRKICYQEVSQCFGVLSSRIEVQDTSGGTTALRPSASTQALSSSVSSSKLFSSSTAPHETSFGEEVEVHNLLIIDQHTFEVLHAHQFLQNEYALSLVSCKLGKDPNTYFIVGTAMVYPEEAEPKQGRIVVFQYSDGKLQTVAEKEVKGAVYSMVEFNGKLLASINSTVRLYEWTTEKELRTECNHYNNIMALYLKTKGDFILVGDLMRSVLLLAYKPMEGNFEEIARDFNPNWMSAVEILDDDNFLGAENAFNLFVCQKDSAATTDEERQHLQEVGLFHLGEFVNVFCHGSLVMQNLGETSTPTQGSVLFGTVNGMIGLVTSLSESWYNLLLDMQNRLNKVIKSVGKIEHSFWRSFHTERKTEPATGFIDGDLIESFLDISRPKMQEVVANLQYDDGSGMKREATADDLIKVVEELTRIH
# Chain of E3 CRL4^CRBN (Q96SW2 whole entry partner): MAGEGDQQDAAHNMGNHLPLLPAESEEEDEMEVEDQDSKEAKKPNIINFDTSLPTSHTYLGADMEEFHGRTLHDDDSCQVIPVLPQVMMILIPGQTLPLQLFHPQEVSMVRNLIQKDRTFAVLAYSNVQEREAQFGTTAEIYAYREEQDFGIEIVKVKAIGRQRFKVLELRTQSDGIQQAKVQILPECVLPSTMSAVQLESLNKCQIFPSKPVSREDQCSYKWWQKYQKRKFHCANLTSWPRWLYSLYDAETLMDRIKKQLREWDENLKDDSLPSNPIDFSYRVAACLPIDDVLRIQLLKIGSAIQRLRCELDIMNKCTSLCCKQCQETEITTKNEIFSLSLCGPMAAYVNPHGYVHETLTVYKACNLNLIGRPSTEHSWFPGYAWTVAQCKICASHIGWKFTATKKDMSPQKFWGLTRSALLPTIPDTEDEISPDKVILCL
# Chain of ROC1-CUL1 (Q13616 whole entry): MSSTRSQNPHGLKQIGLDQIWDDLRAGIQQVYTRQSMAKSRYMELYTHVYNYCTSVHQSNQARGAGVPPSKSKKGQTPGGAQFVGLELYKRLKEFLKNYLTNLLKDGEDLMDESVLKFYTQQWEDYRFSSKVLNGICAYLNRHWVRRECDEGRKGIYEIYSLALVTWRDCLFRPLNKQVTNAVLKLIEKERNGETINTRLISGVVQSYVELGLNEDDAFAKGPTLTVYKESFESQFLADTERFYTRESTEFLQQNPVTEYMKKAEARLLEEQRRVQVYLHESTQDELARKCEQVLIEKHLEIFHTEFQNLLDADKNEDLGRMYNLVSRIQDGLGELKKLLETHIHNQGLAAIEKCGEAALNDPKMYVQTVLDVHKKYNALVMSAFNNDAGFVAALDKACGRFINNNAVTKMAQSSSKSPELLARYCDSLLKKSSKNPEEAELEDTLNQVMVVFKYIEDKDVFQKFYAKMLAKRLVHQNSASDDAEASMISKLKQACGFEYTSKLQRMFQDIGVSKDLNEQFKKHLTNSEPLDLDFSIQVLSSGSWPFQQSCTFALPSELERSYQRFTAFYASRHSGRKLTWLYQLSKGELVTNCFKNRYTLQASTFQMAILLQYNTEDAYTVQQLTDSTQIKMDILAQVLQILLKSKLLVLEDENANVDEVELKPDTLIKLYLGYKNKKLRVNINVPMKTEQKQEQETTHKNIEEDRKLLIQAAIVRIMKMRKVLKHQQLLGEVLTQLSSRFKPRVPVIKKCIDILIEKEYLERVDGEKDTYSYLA
# Chain of ROC1-CUL1 (P62877 whole entry partner): as the sequence (P62877 whole entry partner) above
smiles,measurement,setting,value
"O=c1c(-c2cnn(-c3ccccc3)c2)c(C(F)(F)F)oc2c(O)c(O)ccc12 [#33-11, 7,8-dihydroxy-3-(1-phenyl-1H-pyrazol-4-yl)-2-(trifluoromethyl)-4H-chromen-4-one]",inhibition of ubiquitination of CK1α,E3 CRL4^CRBN; at 30 μM,Significant inhibitory effects
same,level of di-Ub product,ROC1-CUL1; up to 150 μM,remained almost unchanged
same,EC50,cancer cells; Table 6,13 µM
same,Plasma Stability: t1/2,Plasma stability,>8.33 h
same,A:B/B:A,CACO-2,1.95
same,Permeability,CACO-2,high
same,PGP substrate,CACO-2,probable
same,Ctrough,Mouse i.p. PK; i.p. 100 mg/kg in DMSO,160 nM
same,T1/2,Mouse i.p. PK; i.p. 100 mg/kg in DMSO,7.2 h
same,AUC,"Mouse i.p. PK; i.p. 100 mg/kg in DMSO, 0-24 hr",19.6 μM-hr
same,AUC,"[1]; tumor, mice dosed with #33-11, read-out: AUC in tumors",0.75 µM·h
same,tumor growth inhibition,MV4-11 tumors; earlier AML MV4-11 xenograft model study,did not reach statistically significant levels
"O=c1c(-c2cnn(-c3ccc(Cl)cc3)c2)c(C(F)(F)F)oc2c(O)c(O)ccc12 [KH-4-43, 3-(1-(4-chlorophenyl)-1H-pyrazol-4-yl)-7,8-dihydroxy-2-(trifluoromethyl)-4H-chromen-4-one]",dose range inhibiting ubiquitination by CRL4,E3 CRL4^CRBN,~10 µM
same,discharge of Cdc34-Ub and production of Ub2 by ROC1-CUL1,ROC1-CUL1,no effect
same,EC50,cancer cells; Table 1,4 µM
same,EC50,cancer cells; Table 6,8 µM
same,Permeability,CACO-2,highly permeable and high
same,PGP substrate,CACO-2,not a substrate
same,24 hr C-trough concentration,Mouse i.p. PK; i.p. 100 mg/kg,89 nM
same,tolerability,Mouse i.p. PK; i.p. 100 mg/kg,well tolerated
same,Ctrough,Mouse i.p. PK; i.p. 100 mg/kg in DMSO,90 nM
same,AUC,"[1]; BALB/c nude, plasma, ip, G3, 50 mg/kg Q2D, read-out: AUC over 24 hours in plasma",~3.3 µM·h
same,AUC,"[1]; BALB/c nude, tumor, ip, G4, 50 mg/kg QD, read-out: AUC over 24 hours in tumor",~4.7 µM·h
same,tumor AUC higher than with #33-11,[1]; in vivo,6 fold
same,dose range inhibiting ubiquitination by CRL1/SCF,CRL1/SCF,~30 µM
same,tumor inhibition value,"MV4-11 tumors; G2, 25 mg/kg, Q2D",18.60%
same,tumor inhibition value,"MV4-11 tumors; G3, 50 mg/kg, Q2D",25.15%
same,tumor inhibition value,"MV4-11 tumors; G4, 50 mg/kg, QD",38.90%
same,safety by body weight loss guideline (>20% toxic),MV4-11 tumors; tested dose levels 25 and 50 mg/kg,judged to be safe

# From patent US20240174649A1, “CULLIN-RING E3 UBIQUITIN LIGASE 4 INHIBITOR COMPOUNDS AND METHODS OF THEIR USE” (ICAHN SCHOOL OF MEDICINE AT MOUNT SINAI, priority 2021, published 2024)
